# Test results published in patent publication US11014896B2, “TRPA1 and TRPV4 inhibitors and methods of using the same for organ-specific inflammation and itch” (Duke University, priority 2014, dated 2021).
# “Also recorded” adds a separate entry of the source.
# Tests used:
# human TRPV1 = molecular target: T1, human TRPV1 (Homo sapiens, UniProt Q8NER1); assay: Ca2+ signal in N2a cells transfected with human TRPV1; type: cell-based; conditions: stimulation with 5 μM capsaicin
# T1 construct: expressed in transfected cells; host or cells: N2a cells
# T1 sequence (Q8NER1 whole entry): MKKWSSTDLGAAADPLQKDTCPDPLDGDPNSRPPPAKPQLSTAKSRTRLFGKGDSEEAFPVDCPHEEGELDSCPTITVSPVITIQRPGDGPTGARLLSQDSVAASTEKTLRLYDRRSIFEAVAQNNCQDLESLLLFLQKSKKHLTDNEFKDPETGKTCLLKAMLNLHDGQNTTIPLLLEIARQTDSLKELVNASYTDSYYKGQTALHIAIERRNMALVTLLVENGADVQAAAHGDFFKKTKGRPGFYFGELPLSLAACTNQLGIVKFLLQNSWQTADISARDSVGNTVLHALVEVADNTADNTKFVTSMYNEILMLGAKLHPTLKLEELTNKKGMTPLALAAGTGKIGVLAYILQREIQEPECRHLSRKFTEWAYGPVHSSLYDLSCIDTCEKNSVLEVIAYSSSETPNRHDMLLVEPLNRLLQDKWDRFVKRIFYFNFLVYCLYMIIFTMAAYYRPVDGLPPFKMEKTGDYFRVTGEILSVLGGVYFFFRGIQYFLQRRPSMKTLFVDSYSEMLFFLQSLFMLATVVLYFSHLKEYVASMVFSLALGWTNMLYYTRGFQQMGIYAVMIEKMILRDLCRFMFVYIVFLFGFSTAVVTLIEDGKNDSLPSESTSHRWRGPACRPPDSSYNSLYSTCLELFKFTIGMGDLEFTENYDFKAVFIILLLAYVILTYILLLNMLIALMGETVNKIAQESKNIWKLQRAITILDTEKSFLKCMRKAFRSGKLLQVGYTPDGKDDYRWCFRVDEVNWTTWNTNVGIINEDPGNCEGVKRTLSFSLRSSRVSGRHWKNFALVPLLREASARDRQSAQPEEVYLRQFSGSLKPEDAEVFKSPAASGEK
# Method: Compounds were tested for their effect on TRPV1, TRPV2, and TRPV3. Methods were similar to those described in Example 15. Briefly, N2a cells were transfected with human TRPV1, TRPV2, or TRPV3. eGFP-transfection was used as control. For specific stimulation of TRPV1, 5 μM capsaicin was used. For stimulation of TRPV2, hypotonicity (260 mosmol/L) was used, based on previous reports of TRPV2 being osmotically responsive. N2a cells were not responsive to hypotonicity, and neither were control-transfected cells. For TRPV3-expressing cells, camphor (20% of a commercially available stock solution) was used. […] Stimulation and control protocols were applied as for TRPA1-expressing N2a cells as detailed above in Example 15.
# [1] = system: primary mouse keratinocytes (1° MK); assay: UVB-evoked Ca++ signaling in primary mouse keratinocytes (fluo-4 imaging); type: cell-based
# Method: Ca++ imaging of 1° MK was conducted following routine procedures. For UVB stimulation, a customized device was built. The system comprised a printed circuit board for electrical interconnects and mechanical support and an ultraviolet light-emitting diode (UV LED).
# The operating wavelength was 295 nm (FIG. 2A), with a full-width half-max of 12 nm. The optical power was 500 mW. The focal point was aimed at the plane of the upper surface of the quartz coverslip, which was used to minimize UV absorption along the optical path towards the cells (FIG. 2A-FIG. 2C). The optical intensity at the focal point was estimated to be 150 mW/mm^2.
# Ca++ imaging of mouse 1° MK in response to chemical activation of TRPV4 was conducted after loading with 2 μM fura2-AM, following a ratiometric Ca2+ imaging protocol with 340/380 nm […] for dual excitation. Ratios of emissions were acquired at 0.5 Hz. ΔR/R0 was determined as the fraction of the increase of a given ratio over baseline ratio, divided by baseline ratio. For stimulation of cells with UVB, where fura-2 was not suitable because of the proximity of stimulation with 340/380 nm and 295 nm, 2 μM fluo4-AM was used instead. Ca++ imaging was carried out at 488 nm excitation, acquisition of emissions at 0.5 Hz, expressed as ΔF/F0. In the custom-built UV optical system, UV LEDs were capped with a ball lens, a transparent optical window in the shape of a hemispherical lens (FIG. 2B). The LED output optical beam focused at 15-20 mm from the lens, with a spot diameter of approximately 1.5-2.0 mm (FIG. 2C). […] The thermal equilibration stage was set for physiological temperature.
# ET1 [2] = assay: ET1 secretion by non-stimulated 1° MK (ELISA); type: cell-based, mouse
# ET1 [3] = assay: ET1 expression by UVB-exposed 1° MK (immunocytochemistry); type: cell-based, mouse; conditions: cells preincubated with inhibitor
# Method: 1° MK were exposed to UVB using the UV optical system (295 nm LED). 24 hours later the cells were fixed and fluorescently immunolabeled for ET1. Digital images were captured and subjected to morphometry.
# Mouse keratinocytes were cultured on collagen coated quartz coverslips and then stimulated from the bottom using the previously mentioned UV optical system using the 295 nm LED. 24 hours later the cells were fixed in 4% formaldehyde in PBS for 20 minutes, permeabilized with 0.1% Triton X-100 in PBS for 10 minutes, washed, then blocked in 10% normal goat serum in PBS for 45 minutes. Coverslips were incubated overnight with primary antibody mouse anti-ET1 (1:200; Abcam), washed three times in PBS and incubated with secondary antibody for 2 hours at 25° C. Coverslips were washed three times in PBS, once with double-distilled H2O. Digital images were captured using a 40× immersion lens on the BX61 Olympus upright microscope. Morphometric analysis was conducted using ImageJ freeware with tailored regions-of-interest.
# IL-1β = assay: Keratinocyte IL-1β expression in UVB-exposed footpad after topical treatment; type: in vivo, mouse; conditions: 5 mM GSK205 topical
# Method: (§1) GSK205 topical treatment: A viscous solution of 68% EtOH/5% glycerol plus 1 mM or 5 mM GSK205 (none for control) was applied to hindpaws by rubbing in 20 μL, applied at time-points 1 hour and again 10 min before UV exposure.
# (§2) Routine procedures were followed as described previously (Chen et al., 2009). Mice were perfused transcardially with 30 mL PBS, followed by 30 mL 4% paraformaldehyde. Tissues, including the L5 DRGs (bilateral), and footpad preparations, were dissected and post-fixed in 4% paraformaldehyde. Tissue blocks were further cryoprotected in 30% sucrose in PBS for 24-48 hours. For mouse TRPV4, keratin-specific antibodies, phospho-ERK, IL-6, IL-1β, CXCL5 and caspase-1, tissue was prepared as frozen blocks and subsequently sectioned on a cryostat. For CD68, CD15 (neutrophil elastase) and CD3, mouse skin was prepared by 2% PFA perfusion. […]
# CXCL5 = assay: Keratinocyte CXCL5 expression in UVB-exposed footpad after topical treatment; type: in vivo, mouse; conditions: 5 mM GSK205 topical
# Method: as §1, §2
# TRPV4 = TRPV4 (Homo sapiens, UniProt Q9HBA0); assay: UVB-evoked Ca++ transient in TRPV4-transfected HEK293T cells; type: cell-based; design: expressed in transfected cells; host or cells: HEK293T cells; conditions: pre-exposure to 20 μM GSK205
# Sequence of TRPV4 (Q9HBA0 whole entry, species assumed): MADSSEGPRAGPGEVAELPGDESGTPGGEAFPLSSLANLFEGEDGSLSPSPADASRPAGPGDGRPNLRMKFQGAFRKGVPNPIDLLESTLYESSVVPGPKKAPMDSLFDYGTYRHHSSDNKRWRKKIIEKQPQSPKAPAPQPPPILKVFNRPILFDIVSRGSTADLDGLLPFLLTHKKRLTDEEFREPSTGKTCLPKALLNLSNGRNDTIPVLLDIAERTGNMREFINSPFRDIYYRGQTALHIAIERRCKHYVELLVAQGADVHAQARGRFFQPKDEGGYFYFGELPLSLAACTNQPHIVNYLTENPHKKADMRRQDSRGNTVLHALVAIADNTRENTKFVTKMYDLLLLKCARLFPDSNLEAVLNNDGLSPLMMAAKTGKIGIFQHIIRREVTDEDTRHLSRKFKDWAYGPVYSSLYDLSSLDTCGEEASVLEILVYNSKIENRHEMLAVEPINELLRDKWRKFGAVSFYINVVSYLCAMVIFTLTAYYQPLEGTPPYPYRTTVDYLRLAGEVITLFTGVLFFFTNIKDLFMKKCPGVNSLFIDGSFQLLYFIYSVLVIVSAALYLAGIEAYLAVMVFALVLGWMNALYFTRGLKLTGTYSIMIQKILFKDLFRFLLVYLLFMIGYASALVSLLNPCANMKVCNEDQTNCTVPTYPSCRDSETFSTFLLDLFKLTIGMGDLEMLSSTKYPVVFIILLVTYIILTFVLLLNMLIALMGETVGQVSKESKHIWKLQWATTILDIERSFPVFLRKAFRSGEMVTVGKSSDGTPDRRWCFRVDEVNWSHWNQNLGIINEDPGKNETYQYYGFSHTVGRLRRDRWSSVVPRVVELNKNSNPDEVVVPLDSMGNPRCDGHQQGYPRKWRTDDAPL
Compound,Ca2+ transience on TRPV1 stimulation (human TRPV1),UVB-evoked Ca++ signaling (ΔF/F0) ([1]; GSK205 20 μM),"ET1-augmented, UVB-induced Ca++ transients ([1]; UVB and ET1 co-exposure)",ET1 secretion into supernatant (relative ET1 concentration) (ET1 [2]),ET1 immunoreactivity (ET1 [3]),keratinocyte expression of IL-1β in UVB-exposed footpad (IL-1β),keratinocyte expression of CXCL5 in UVB-exposed footpad (CXCL5),UVB-evoked Ca++ signal in TRPV4-transfected HEK293T cells (TRPV4)
CN(CCc1ccc(Nc2nc(-c3ccccc3)cs2)cc1)Cc1ccccc1 [Compound 16-8],not affected,–,–,–,–,–,–,–
CN(CCc1ccc(Nc2nc(-c3cccnc3)cs2)cc1)Cc1ccccc1 [GSK205],–,very similar response to that of Trpv4−/− 1° MK; also recorded: strongly down-regulated; also recorded: significant attenuation,greatly diminished,significant down-regulation,diminished; also recorded: significant down-regulation,failed to upregulate; also recorded: attenuates keratinocyte expression of IL-1β,Comparably significant blocks; also recorded: attenuates keratinocyte expression of CXCL5,blocked; also recorded: virtually eliminates
